Measured values taken from US20180016593A1, “HERBICIDE-RESISTANT SUNFLOWER PLANTS, POLYNUCLEOTIDES ENCODING HERBICIDE-RESISTANT ACETOHYDROXYACID SYNTHASE LARGE SUBUNIT PROTEINS, AND METHODS OF USE” (priority 2005, published 2018).
Where two headings read alike, the source gives them in different places.

Columns and labels:
Type in all cases: in vivo, Helianthus annuus
[1] = test system: sunflower lines carrying the A122T mutation; details: 14 DAT; for plant height, Mean / root dry weight, Mean / biomass accumulation, Mean: six A122T genotypes; for Phytotoxicity Index, Mean: three A122T genotypes
Procedure: (§1) A greenhouse study was conducted to quantify and contrast the imazapir sensivity of the mutants A122T and A205V in different genetic backgrounds at the whole plant level in sunflower. Seeds of the different sunflower lines that were used in this study were obtained under field conditions.
(§2) Seeds were sown in Petri dishes and, after germination, plantlets were transplanted to pots of 10 cm of diameter in a potting media consisting of equal parts of vermiculite, soil and sand. Plants were grown in a greenhouse under natural light conditions supplemented with 400 W sodium halide lamps to provide a 16 hrs daylength. Day/night temperatures were 25 and 20° C., respectively. At the V2 stage 10 plants of each genotype were randomly assigned to each treatment consisting of […] imazapir doses (0, 40, 80, 160, 240, 320, 400 and 480 g ai/ha), and a zero-time biomass determination. Experiment was arranged as a randomized block design with a full factorial (sunflower line×treatment) arrangement of treatments and 10 replications.
(§3) On the day of herbicide application ten plants of each genotype were cut at the cotyledonal node and dried at 60° C. for 48 hrs zero-time for dried weight determination.
(§4) Height was determined as the distance between the cotyledonal node and the apex of each plant. For root biomass determination, each plant was taken from the pot and the potting media was washed out from the roots. Above ground biomass data from each line were converted to biomass accumulation after application by subtracting the appropriate average zero-time biomass from each sample. Dry biomass data were converted to percentages of the untreated control plants within each line to allow direct comparisons between groups. […]

[2] = test system: sunflower IB920 (Manteiner Line, A205V); experiment: Greenhouse whole-plant imazapir dose response (Example 8); details: 14 DAT
Procedure: as §1, §2, §3, §4

[3] = test system: sunflower GIM 5-6 (Restorer Line, A122T); experiment: as above; details: GIM5-6, 14 DAT
Procedure: as §1, §2, §3, §4

Q: What does the source list for `CC(C)C1(C)N=C(c2ncccc2C(=O)O)NC1=O` (centres unmarked) [imazapyr]?
A: plant height, Mean ([1]; 3x (240 g ai/ha)): 95.6 % of untreated plots; root dry weight, Mean ([1]; 3x (240 g ai/ha)): 89.4 % of untreated plots; biomass accumulation, Mean ([1]; 4x (320 g ai/ha)): 87.8 % of untreated plots; plant height, Mean ([1]; 4x (320 g ai/ha)): 93.7 % of untreated plots; root dry weight, Mean ([1]; 4x (320 g ai/ha)): 81.4 % of untreated plots; biomass accumulation, Mean ([1]; 5x (400 g ai/ha)): 79.3 % of untreated plots; plant height, Mean ([1]; 5x (400 g ai/ha)): 89.8 % of untreated plots; root dry weight, Mean ([1]; 5x (400 g ai/ha)): 78.7 % of untreated plots; biomass accumulation, Mean ([1]; 6x (480 g ai/ha)): 74.6 % of untreated plots; plant height, Mean ([1]; 6x (480 g ai/ha)): 84.2 % of untreated plots; root dry weight, Mean ([1]; 6x (480 g ai/ha)): 61.7 % of untreated plots; Phytotoxicity Index, Mean ([1]; 0.5x (40 g ai/ha)): 0.3; Phytotoxicity Index, Mean ([1]; 1x (80 g ai/ha)): 0.3; Phytotoxicity Index, Mean ([1]; 2x (160 g ai/ha)): 0.3; Phytotoxicity Index, Mean ([1]; 3x (240 g ai/ha)): 0.3; Phytotoxicity Index, Mean ([1]; 4x (320 g ai/ha)): 0.5; Phytotoxicity Index, Mean ([1]; 5x (400 g ai/ha)): 0.8; Phytotoxicity Index, Mean ([1]; 6x (480 g ai/ha)): 1.2; biomass accumulation (above ground dry weight) ([2]; 0.5x (40 g ai/ha)): 93.9 % of untreated plots; plant height ([2]; 0.5x (40 g ai/ha)): 96.2 % of untreated plots; root dry weight ([2]; 0.5x (40 g ai/ha)): 94.0 % of untreated plots; biomass accumulation (above ground dry weight) ([2]; 1x (80 g ai/ha)): 87.9 % of untreated plots; plant height ([2]; 1x (80 g ai/ha)): 80.0 % of untreated plots; root dry weight ([2]; 1x (80 g ai/ha)): 89.6 % of untreated plots; biomass accumulation (above ground dry weight) ([2]; 2x (160 g ai/ha)): 58.8 % of untreated plots; plant height ([2]; 2x (160 g ai/ha)): 61.5 % of untreated plots; root dry weight ([2]; 2x (160 g ai/ha)): 50.7 % of untreated plots; biomass accumulation (above ground dry weight) ([2]; 3x (240 g ai/ha)): 48.4 % of untreated plots; plant height ([2]; 3x (240 g ai/ha)): 40.9 % of untreated plots; root dry weight ([2]; 3x (240 g ai/ha)): 37.3 % of untreated plots; biomass accumulation (above ground dry weight) ([2]; 4x (320 g ai/ha)): 35.5 % of untreated plots; plant height ([2]; 4x (320 g ai/ha)): 27.9 % of untreated plots; root dry weight ([2]; 4x (320 g ai/ha)): 32.8 % of untreated plots; plant height ([2]; 5x (400 g ai/ha)): 30.0 % of untreated plots; root dry weight ([2]; 5x (400 g ai/ha)): 25.4 % of untreated plots; biomass accumulation (above ground dry weight) ([2]; 6x (480 g ai/ha)): 29.4 % of untreated plots; plant height ([2]; 6x (480 g ai/ha)): 27.1 % of untreated plots; root dry weight ([2]; 6x (480 g ai/ha)): 19.4 % of untreated plots; biomass accumulation (above ground dry weight) ([3]; 0.5x (40 g ai/ha)): 100.0 % of untreated plots; plant height ([3]; 0.5x (40 g ai/ha)): 100.0 % of untreated plots; root dry weight ([3]; 0.5x (40 g ai/ha)): 100 % of untreated plots; biomass accumulation (above ground dry weight) ([3]; 1x (80 g ai/ha)): 96.4 % of untreated plots; plant height ([3]; 1x (80 g ai/ha)): 100.0 % of untreated plots; root dry weight ([3]; 1x (80 g ai/ha)): 88.0 % of untreated plots; biomass accumulation (above ground dry weight) ([3]; 2x (160 g ai/ha)): 97.7 % of untreated plots; plant height ([3]; 2x (160 g ai/ha)): 99.1 % of untreated plots; root dry weight ([3]; 2x (160 g ai/ha)): 90.0 % of untreated plots; biomass accumulation (above ground dry weight) ([3]; 3x (240 g ai/ha)): 95.8 % of untreated plots; plant height ([3]; 3x (240 g ai/ha)): 98.1 % of untreated plots; root dry weight ([3]; 3x (240 g ai/ha)): 98.0 % of untreated plots; biomass accumulation (above ground dry weight) ([3]; 4x (320 g ai/ha)): 90.8 % of untreated plots; plant height ([3]; 4x (320 g ai/ha)): 91.0 % of untreated plots; root dry weight ([3]; 4x (320 g ai/ha)): 80.0 % of untreated plots; biomass accumulation (above ground dry weight) ([3]; 5x (400 g ai/ha)): 81.9 % of untreated plots; plant height ([3]; 5x (400 g ai/ha)): 94.3 % of untreated plots; root dry weight ([3]; 5x (400 g ai/ha)): 80.0 % of untreated plots; biomass accumulation (above ground dry weight) ([3]; 6x (480 g ai/ha)): 78.0 % of untreated plots; plant height ([3]; 6x (480 g ai/ha)): 85.8 % of untreated plots; root dry weight ([3]; 6x (480 g ai/ha)): 65.8 % of untreated plots
